Several values for one entry are separate records, joined by “and”; a condition that tells them apart may be missing. Equal values may be shown once. Toxic doses and inconclusive results are not listed.
Test system: BDF1 mice, B16 melanoma ip, median survival T/C
Test: NCI In Vivo Anticancer Drug Screen. Data for tumor model B16 Melanoma (intraperitoneal) in B6D2F1 (BDF1) mice
Details: endpoint: median survival time, higher = longer survival
Procedure, shortened: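 Mice with transplantable tumors; drug vs vehicle groups; endpoint survival or tumor size; value = T/C.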

[1] = dose: 50.0 mg/kg/injection, schedule: Q01DX009 (ip), vehicle: saline with Tween-80
[2] = dose: 100.0 mg/kg/injection, schedule: Q01DX009 (ip), vehicle: saline with Tween-80
[3] = dose: 12.5 mg/kg/injection, schedule: Q01DX009 (ip), vehicle: saline
[4] = dose: 25.0 mg/kg/injection, schedule: Q01DX009 (ip), vehicle: saline
[5] = dose: 200.0 mg/kg/injection, schedule: Q01DX009 (ip), vehicle: saline with Tween-80
[6] = dose: 5.0 mg/kg/injection, schedule: Q01DX009 (ip), vehicle: Klucel (hydroxypropylcellulose) (HPC)
[7] = dose: 25.0 mg/kg/injection, schedule: Q01DX009 (ip), vehicle: Klucel (hydroxypropylcellulose) (HPC)
[8] = dose: 50.0 mg/kg/injection, schedule: Q01DX009 (ip), vehicle: Klucel (hydroxypropylcellulose) (HPC)
[9] = dose: 100.0 mg/kg/injection, schedule: Q01DX009 (ip), vehicle: Klucel (hydroxypropylcellulose) (HPC)
[10] = dose: 200.0 mg/kg/injection, schedule: Q01DX009 (ip), vehicle: Klucel (hydroxypropylcellulose) (HPC)
[11] = dose: 400.0 mg/kg/injection, schedule: Q01DX009 (ip), vehicle: Klucel (hydroxypropylcellulose) (HPC)
[12] = dose: 12.5 mg/kg/injection, schedule: Q01DX009 (ip), vehicle: saline with Tween-80
[13] = dose: 25.0 mg/kg/injection, schedule: Q01DX009 (ip), vehicle: saline with Tween-80
[14] = dose: 100.0 mg/kg/injection, schedule: Q01DX009 (ip), vehicle: saline
[15] = dose: 200.0 mg/kg/injection, schedule: Q01DX009 (ip), vehicle: saline

CN(C)c1c(-c2ccccc2)cc(-c2ccccc2)[nH]c1=O
T/C [1]: 92 % of control
T/C [2]: 86 % of control

COc1cccc(C(O)c2ccncc2C)c1OC (centres undefined)
T/C (dose: 25.0 mg/kg/injection, schedule: Q01DX009 (ip), vehicle: water): 98 % of control
T/C (dose: 50.0 mg/kg/injection, schedule: Q01DX009 (ip), vehicle: water): 98 % of control
T/C (dose: 100.0 mg/kg/injection, schedule: Q01DX009 (ip), vehicle: water): 101 % of control
T/C (dose: 200.0 mg/kg/injection, schedule: Q01DX009 (ip), vehicle: water): 104 % of control

C[n+]1ccc(C#N)c2ccccc21
T/C (dose: 3.75 mg/kg/injection, schedule: Q01DX009 (ip), vehicle: saline): 102 % of control
T/C (dose: 7.5 mg/kg/injection, schedule: Q01DX009 (ip), vehicle: saline): 93 % of control

C[N+](C)(C)CCCC1C2CCC(C2)C1C[N+](C)(C)C (centres undefined)
T/C [3]: 110 % of control
T/C [4]: 110 % of control

CCOC(=O)CC(C)(N)NC(N)=O (centres undefined)
T/C [2]: 92 % of control
T/C [5]: 95 % of control
T/C (dose: 400.0 mg/kg/injection, schedule: Q01DX009 (ip), vehicle: saline with Tween-80): 90 % of control

Cc1cc(NCCN(C(C)C)C(C)C)nc(/N=C(\N)Nc2ccc(Cl)c(C(F)(F)F)c2)n1
T/C (dose: 2.5 mg/kg/injection, schedule: Q04DX003 (ip), vehicle: Klucel (hydroxypropylcellulose) (HPC)): 101 % of control
T/C [6]: 92 % of control
T/C (dose: 5.0 mg/kg/injection, schedule: Q04DX003 (ip), vehicle: Klucel (hydroxypropylcellulose) (HPC)): 93 % of control
T/C (dose: 10.0 mg/kg/injection, schedule: Q01DX009 (ip), vehicle: Klucel (hydroxypropylcellulose) (HPC)): 91 % of control
T/C (dose: 10.0 mg/kg/injection, schedule: Q04DX003 (ip), vehicle: Klucel (hydroxypropylcellulose) (HPC)): 102 % of control
T/C (dose: 20.0 mg/kg/injection, schedule: Q04DX003 (ip), vehicle: Klucel (hydroxypropylcellulose) (HPC)): 111 % of control

CC(=O)C(=O)NC1/C=C(C)\C=C/C(O)C/C=C(C)\C=C/C(O)CC2OC(=O)C1(C)C(=O)C2C (centres undefined)
T/C [7]: 100 % of control
T/C [8]: 118 % of control
T/C [9]: 117 % of control
T/C [10]: 112 % of control

CCCCCCCCCC(O)CCCC (centres undefined)
T/C [7]: 108 % of control
T/C [8]: 105 % of control
T/C [9]: 86 % of control

[Cl][Pt+2][Cl].[NH-]C1CCC1.[NH-]C1CCC1
T/C (dose: 0.5 mg/kg/injection, schedule: Q01DX009 (ip), vehicle: saline with Tween-80): 108 % of control
T/C (dose: 1.0 mg/kg/injection, schedule: Q01DX009 (ip), vehicle: saline with Tween-80): 117 % of control
T/C (dose: 2.0 mg/kg/injection, schedule: Q01DX009 (ip), vehicle: saline with Tween-80): 115 % of control
T/C [6]: 112 % of control

CNC(Cc1ccccc1)c1ccc(OC)c(OC)c1 (centres undefined)
T/C [9]: 100 % of control
T/C [10]: 100 % of control
T/C [11]: 103 % of control

CCCCOC(=O)c1ccc(NC(=O)Nc2ccccc2OC)cc1
T/C [12]: 93 % of control
T/C [13]: 100 % of control
T/C [1]: 98 % of control

COC1CC(OC2CCC3(C)C(CCC45OC46CCC(C4=CC(=O)OC4)C6(C)CCC35)C2)OC(C)C1O (centres undefined)
T/C (dose: 1.2 mg/kg/injection, schedule: Q01DX009 (ip), vehicle: saline): 98 % of control
T/C (dose: 1.8 mg/kg/injection, schedule: Q01DX009 (ip), vehicle: saline): 101 % of control
T/C (dose: 2.75 mg/kg/injection, schedule: Q01DX009 (ip), vehicle: saline): 87 % of control
T/C [3]: 96 % of control
T/C [4]: 89 % of control

CC/C(CC(C)CC)=N\O (centres undefined)
T/C [14]: 100 % of control
T/C [15]: 94 % of control
T/C (dose: 400.0 mg/kg/injection, schedule: Q01DX009 (ip), vehicle: saline): 94 % of control

COC(=O)/C(C)=C/C=C/C(OC)C(OC(N)=O)/C(C)=C/C(C)C(O)C(CC(C)CC1=C(N)C(=O)C=C(N)C1=O)OC (centres undefined)
T/C (dose: 12.5 mg/kg/injection, schedule: Q01DX005 (ip), vehicle: other): 94 % of control
T/C (dose: 25.0 mg/kg/injection, schedule: Q01DX005 (ip), vehicle: other): 95 % of control
T/C (dose: 50.0 mg/kg/injection, schedule: Q01DX005 (ip), vehicle: other): 108 % of control
T/C (dose: 100.0 mg/kg/injection, schedule: Q01DX005 (ip), vehicle: other): 93 % of control

CC(=N\O)/C(C)=N/O.CC(=N\O)/C(C)=N/O.[Ni]
T/C (dose: 3.0 mg/kg/injection, schedule: Q01DX009 (ip), vehicle: saline with Tween-80): 93 % of control
T/C (dose: 6.0 mg/kg/injection, schedule: Q01DX009 (ip), vehicle: saline with Tween-80): 87 % of control

COC(=O)[C@@H]1c2cc3c(c(O)c2[C@@H](OC)C[C@@]1(C)O)C(=O)c1c(O)cc2c(c1C3=O)OC1O[C@@]2(C)[C@H](O)[C@@H](N(C)C)[C@@H]1O
T/C [3]: 155 % of control and 158 % of control
T/C [4]: 165 % of control and 178 % of control
T/C (dose: 50.0 mg/kg/injection, schedule: Q01DX009 (ip), vehicle: saline): 184 % of control and 186 % of control
T/C [15]: 153 % of control

OC(CC(O)(C(F)(F)F)C(F)(F)F)c1cccc(Cl)c1 (centres undefined)
T/C (dose: 50.0 mg/kg/injection, schedule: Q04DX003 (ip), vehicle: gum acacia): 105 % of control
T/C (dose: 100.0 mg/kg/injection, schedule: Q04DX003 (ip), vehicle: gum acacia): 90 % of control
T/C (dose: 200.0 mg/kg/injection, schedule: Q04DX003 (ip), vehicle: gum acacia): 90 % of control

CC1(C)SC(C(NC(=O)Cc2ccccc2)C(=O)O)NC1C(=O)O (centres undefined)
T/C [2]: 105 % of control
T/C [5]: 102 % of control

CCN(CC)CCCCCOC(=O)c1ccccc1
T/C [8]: 112 % of control
T/C [9]: 93 % of control
T/C [10]: 103 % of control

COc1cc2c(c(OC)c1OC)-c1ccc(OC)c(=O)cc1[C@@H](NC(=O)CF)CC2
T/C (dose: 0.04 mg/kg/injection, schedule: Q01DX009 (ip), vehicle: saline with Tween-80): 116 % of control
T/C (dose: 0.09 mg/kg/injection, schedule: Q01DX009 (ip), vehicle: saline with Tween-80): 118 % of control

CC(=O)Nc1cc2c(cc1Br)-c1ccccc1C2O (centres undefined)
T/C [12]: 92 % of control
T/C (dose: 12.5 mg/kg/injection, schedule: Q04DX003 (ip), vehicle: saline with Tween-80): 92 % of control
T/C [13]: 102 % of control
T/C (dose: 25.0 mg/kg/injection, schedule: Q04DX003 (ip), vehicle: saline with Tween-80): 100 % of control
T/C [1]: 89 % of control
T/C (dose: 50.0 mg/kg/injection, schedule: Q04DX003 (ip), vehicle: saline with Tween-80): 95 % of control
T/C (dose: 100.0 mg/kg/injection, schedule: Q04DX003 (ip), vehicle: saline with Tween-80): 90 % of control

C=C(OC1C(C)=C2C(C1OC(=O)CCCCCCC)C(C)(OC(C)=O)CC(OC(=O)CCC)C1(O)C2OC(=O)C1(C)O)/C(C)=C/C (centres undefined)
T/C (dose: 0.37 mg/kg/injection, schedule: Q01DX009 (ip), vehicle: Klucel (hydroxypropylcellulose) (HPC)): 97 % of control
T/C (dose: 1.5 mg/kg/injection, schedule: Q01DX009 (ip), vehicle: Klucel (hydroxypropylcellulose) (HPC)): 99 % of control
T/C (dose: 3.0 mg/kg/injection, schedule: Q01DX009 (ip), vehicle: Klucel (hydroxypropylcellulose) (HPC)): 115 % of control

C[Si](C)(O[Si](C)(C)c1ccccc1)c1ccccc1
T/C [4]: 123 % of control
T/C [14]: 114 % of control

C(=Nc1ccc2c(c1)Cc1ccccc1-2)c1ccnc2ccccc12
T/C [9]: 103 % of control
T/C [10]: 100 % of control
T/C [11]: 93 % of control

CC(=O)C(O)N1C(=O)C=CC1=O (centres undefined)
T/C (dose: 0.32 mg/kg/injection, schedule: Q01DX009 (ip), vehicle: saline with Tween-80): 100 % of control
T/C (dose: 0.63 mg/kg/injection, schedule: Q01DX009 (ip), vehicle: saline with Tween-80): 108 % of control
T/C (dose: 1.25 mg/kg/injection, schedule: Q01DX009 (ip), vehicle: saline with Tween-80): 111 % of control
T/C (dose: 2.5 mg/kg/injection, schedule: Q01DX009 (ip), vehicle: saline with Tween-80): 105 % of control
T/C (dose: 5.0 mg/kg/injection, schedule: Q01DX009 (ip), vehicle: saline with Tween-80): 105 % of control

Reference: PubChem BioAssay AID192 (DTP/NCI, 2004)
